Laboratory results from patent US8679836B2, “Methods of monitoring angiogenesis and metastasis in three dimensional co-cultures” (The United States of America, as represented by the …, priority 2007, dated 2014).
Where two headings read alike, the source gives them in different places.

How the values were obtained:
[1] = system: PAE-GFP cells; assay: Tubule formation assay on gelled BME, quantified with AngioApplication; format: cell-based, porcine; conditions: for EC50: Sus scrofa
Method: This example describes exemplary procedures for measuring the ability of the cell lines disclosed herein for tubule formation potential. 50 μl of low growth factor BME (Basement Membrane Extract, Trevigen, Inc. Gaithersburg, Md.) were laid down in each well and the plate was incubated for 1 hour at 37° C. The extract gels at 37° C. to form a reconstituted basement membrane and stimulates tubule formation by endothelial cells. The major components of the Basement Membrane Extract (BME) include laminin I, collagen IV, entactin, and heparin sulfate proteoglycan. 15,000 PAE-GFP cells were then added on top of the gelled BME and images were acquired with a fluorescent microscope after 3.5-24 hours. Cells were imaged on the BD Pathway™ Bioimager. […] Tubule formation assays were quantified using the Java based software AngioApplication™. AngioApplication™ has been specifically designed for the quantification of tubule formation assays. Several morphological parameters were assessed in images including the total area of the tubules, the total number of tubules, number of nodes, number of branch points, the number of tubes per node, or node.
As shown in FIG. 7A increasing concentrations of suramin causes disruption of tubule formation. AngioApplication™ was used to automatically assess tube length at several concentrations of suramin. Traditionally quantification of tube formation was based in the measurement of complete (long) tubes in the image. AngioApplication™ determined that as the concentration of suramin was increased the number of long tubules was diminished. […] In addition, because AngioApplication™ calculates the length for all tubes in the image (including incomplete tubes) a more refined analysis was performed using the measurement of short (or incomplete) tubules. […] This is in agreement with the fact that Suramin interferes with the mechanism of tube formation.

[2] = system: PAE cells; assay: 3D co-culture of fluorescent PAE cells with leiomyosarcoma HTB-88 xenograft biopsy tissue; format: cell-based, porcine; conditions: 100 μg/ml, six days, FIG. 30
Method: Xenografts were prepared as in Example 7. Tumor xenografts were dissected when they reached about 1 cm in diameter and put into the sterile 15 ml or 50 ml tubes (Corning) with RPMI1640 medium supplemented with 10% FBS, 1% Glucose (Sigma), and 4× Antibiotic-Antimycotic (Invitrogen). The tumor xenografts were placed on wet ice and shipped to the lab within 2-3 hours. The Xenografts were rinsed 3 times in 70% ethanol and then 3 times in PBS. In the hood, the core biopsy was performed by biopsy punch (Miltex, Inc.) and was washed out into a 100 cm cell culture dish (Corning) by using a pipette to blow the top opening of the biopsy applicator. Using a disposable scalpel (Feather Safety Razor, Co. Japan), the core biopsy was dissected in three stages. 1 mm of both ends of the core biopsy was carefully cut off; they were transferred into a new 100 cm cell culture dish labeled P (peripheral section). Next, 1 mm of both ends of the remaining core biopsy were removed and discarded. […]
3D co-cultures were prepared as follows: 50 μl 1% SEAKEM™ LE agarose were added to individual wells of a 96-well plate and allowed to solidify at room temperature for 20 minutes. […] Cultures were incubated at 37° C. for 5-20 days and endothelial vessel network formation was observed by confocal laser scanning fluorescence microscopy. […]

[3] = system: HMEC-1; assay: 3D co-culture of HMEC-1 with leiomyosarcoma HTB-88 core biopsy xenograft, panel of angiogenesis inhibitors; format: cell-based, human; conditions: 100 μg/ml, five-day incubation, versus Thalidomide, Sunitinib, Fumagillin
Method: Peripheral ringlet xenograft tissue/HMEC-1 co-cultures were incubated with Avastin®, Thalidomide, Sunitinib or Fumagilin.
3D co-cultures were prepared as follows: 50 μl 1% SEAKEM™ LE agarose were added to individual wells of a 96-well plate and allowed to solidify at room temperature for 20 minutes. 30 μl GELTREX® gel matrix (Invitrogen) were combined with PAE, LEC or HMEC-1 cells at a cell density of 560,000 cells/ml and added to each well of the plate (atop the solidified agarose). Plates were maintained on wet ice (4° C.) to prevent solidification of the gel matrix/cell mixture (the second layer). A single tumor cell spheroid colony or single ringlet of xenograft core biopsy was added to the center of the well and the matrix gel was solidified at 37° C. On top of the tumor/endothelial cell gel layer, 80 μl EBM-2+1% FBS were added to a final concentration of EMB-2+0.5% FBS in relation to the total volume of the culture. Cultures were incubated at 37° C. for 5-20 days and endothelial vessel network formation was observed by confocal laser scanning fluorescence microscopy. […]
Identifying the most efficacious therapy for a particular patient is a crucial goal for successful cancer treatment. […] Several FDA approved anti-angiogenic compounds were assessed in this capacity, including Avastin®, Thalidomide, and Sunitinib as well as the non-FDA approved drug Fumagillin.

Row | Molecule | effect on tubule formation ([1]; PAE green cells, 0 to 26 μM) | EC50 ([1]; read-out: EC50, number of long tubules) [µM] | EC50 ([1]; read-out: EC50, number of short (incomplete) tubules) [µM] | EC50 ([1]; read-out: EC50 calculated, tubule formation) [µM] | effect on PAE proliferation [2] | effect on tubule formation [2] | inhibition of proliferation, compared with the other inhibitors [3] | inhibition of tubule formation, compared with the other inhibitors [3]
1 | Cc1ccc(C(=O)Nc2ccc(S(=O)(=O)O)c3cc(S(=O)(=O)O)cc(S(=O)(=O)O)c23)cc1NC(=O)c1cccc(NC(=O)Nc2cccc(C(=O)Nc3cc(C(=O)Nc4ccc(S(=O)(=O)O)c5cc(S(=O)(=O)O)cc(S(=O)(=O)O)c45)ccc3C)c2)c1 [suramin] | inhibited tubule formation | ~26 | ~26 | ~26 | – | – | – | –
2 | Avastin®: monoclonal antibody directed against an isoform of VEGF, FDA-approved angiogenesis inhibitor | – | – | – | – | inhibited | inhibited | greatest inhibition | greatest inhibition
